Laboratory results: patent US20210045385A1, “PYRIDAZINONE-SUBSTITUTED KETOXIMES AS HERBICIDES” (FMC Corporation, priority 2018, published 2021)

Legend:
Format in all cases: in vivo
[1] = system: Italian ryegrass (Lolium mutiflorum); experiment: Test C preemergence, visual plant response rating; conditions: Test C, 0 is no effect, 100 is complete control
In short: (§1)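 Seeds sown in a loam–sand blend got a directed preemergence soil spray; postemergence plants (2–10 cm, one- to two-leaf stage) were sprayed with compound in a non-phytotoxic solvent plus surfactant. Injury was scored visually against untreated controls after about 10 d in a greenhouse on a 0–100 scale (100 = complete control).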

[2] = system: barnyardgrass (Echinochloa crus-galli); experiment: Test C preemergence, visual plant response rating; conditions: Test C, 0 is no effect, 100 is complete control
In short: as §1

[3] = system: foxtail, giant (giant foxtail, Setaria faberi); experiment: Test C preemergence, visual plant response rating; conditions: Test C, 0 is no effect, 100 is complete control
In short: as §1

[4] = system: kochia (Bassia scoparia); experiment: Test C preemergence, visual plant response rating; conditions: Test C, 0 is no effect, 100 is complete control
In short: as §1

[5] = system: pigweed (Amaranthus retroflexus); experiment: Test C preemergence, visual plant response rating; conditions: Test C, 0 is no effect, 100 is complete control
In short: as §1

[6] = system: ragweed (common ragweed, Ambrosia artemisiifolia); experiment: Test C preemergence, visual plant response rating; conditions: Test C, 0 is no effect, 100 is complete control
In short: as §1

[7] = system: Italian ryegrass (Lolium mutiflorum); experiment: Test C postemergence, visual plant response rating
In short: as §1

[8] = system: barnyardgrass (Echinochloa crus-galli); experiment: Test C postemergence, visual plant response rating
In short: as §1

[9] = system: blackgrass (Alopecurus myosuroides); experiment: Test C postemergence, visual plant response rating
In short: as §1

[10] = system: corn (Zea mays); experiment: Test C postemergence, visual plant response rating
In short: as §1

[11] = system: foxtail, giant (giant foxtail, Setaria faberi); experiment: Test C postemergence, visual plant response rating
In short: as §1

[12] = system: galium (catchweed bedstraw, Galium aparine); experiment: Test C postemergence, visual plant response rating
In short: as §1

[13] = system: kochia (Bassia scoparia); experiment: Test C postemergence, visual plant response rating
In short: as §1

[14] = system: pigweed (Amaranthus retroflexus); experiment: Test C postemergence, visual plant response rating
In short: as §1

[15] = system: ragweed (common ragweed, Ambrosia artemisiifolia); experiment: Test C postemergence, visual plant response rating
In short: as §1

[16] = system: wheat (Triticum aestivum); experiment: Test C postemergence, visual plant response rating
In short: as §1

[17] = system: barnyardgrass (Echinochloa crus-galli); experiment: Test D flooded paddy test, visual plant response rating; conditions: 250 g ai/ha, scale 0 to 100 (0 no effect, 100 complete control), 13 to 15 d
In short: (§2)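 Plants grown to the 2-leaf stage; pots flooded to 3 cm above soil and compound applied directly into paddy water, depth held throughout. Kept in greenhouse 13 to 15 d, then rated visually against untreated controls on a 0–100 scale (0 no effect, 100 complete control).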

[18] = system: duck salad (Heteranthera limosa); experiment: as above; conditions: 250 g ai/ha, scale 0 to 100 (0 no effect, 100 complete control), 13 to 15 d
In short: as §2

[19] = system: rice (Oryza sativa); experiment: as above; conditions: 250 g ai/ha, scale 0 to 100 (0 no effect, 100 complete control), 13 to 15 d
In short: as §2

[20] = system: sedge umbrella (small-flower umbrella sedge, Cyperus difformis); experiment: as above; conditions: 250 g ai/ha, scale 0 to 100 (0 no effect, 100 complete control), 13 to 15 d
In short: as §2

[21] = Test C, postemergence, 125 g ai/ha

SMILES	Ryegrass, Italian plant response rating (0 to 100 scale) ([1]; 31 g ai/ha)	Ryegrass, Italian plant response rating (0 to 100 scale) ([1]; 125 g ai/ha)	Barnyardgrass plant response rating (0 to 100 scale) ([2]; 31 g ai/ha)	Barnyardgrass plant response rating (0 to 100 scale) ([2]; 125 g ai/ha)	Foxtail, Giant plant response rating (0 to 100 scale) ([3]; 31 g ai/ha)	Foxtail, Giant plant response rating (0 to 100 scale) ([3]; 125 g ai/ha)	Kochia plant response rating (0 to 100 scale) ([4]; 31 g ai/ha)	Kochia plant response rating (0 to 100 scale) ([4]; 125 g ai/ha)	Pigweed plant response rating (0 to 100 scale) ([5]; 31 g ai/ha)	Pigweed plant response rating (0 to 100 scale) ([5]; 125 g ai/ha)	Ragweed plant response rating (0 to 100 scale) ([6]; 31 g ai/ha)	Ragweed plant response rating (0 to 100 scale) ([6]; 125 g ai/ha)	Ryegrass, Italian plant response rating (0 to 100 scale) ([7]; Postemergence, 31 g ai/ha)	Ryegrass, Italian plant response rating (0 to 100 scale) [7, 21]	Barnyardgrass plant response rating (0 to 100 scale) ([8]; Postemergence, 31 g ai/ha)	Barnyardgrass plant response rating (0 to 100 scale) [8, 21]	Blackgrass plant response rating (0 to 100 scale) ([9]; Postemergence, 31 g ai/ha)	Blackgrass plant response rating (0 to 100 scale) [9, 21]	Corn plant response rating (0 to 100 scale) ([10]; Postemergence, 31 g ai/ha)	Corn plant response rating (0 to 100 scale) [10, 21]	also measured
C#CCO/N=C(\c1cccc(Br)c1)c1c(O)c(C)nn(C)c1=O [Compound 278]	20	100	0	20	30	60	0	70	0	0	10	40	70	80	40	50	50	90	0	20	Foxtail, Giant plant response rating (0 to 100 scale) ([11]; Postemergence, 31 g ai/ha): 30; Foxtail, Giant plant response rating (0 to 100 scale) [11, 21]: 70; Galium plant response rating (0 to 100 scale) ([12]; Postemergence, 31 g ai/ha): 80; Galium plant response rating (0 to 100 scale) [12, 21]: 90; Kochia plant response rating (0 to 100 scale) ([13]; Postemergence, 31 g ai/ha): 40; Kochia plant response rating (0 to 100 scale) [13, 21]: 80; Pigweed plant response rating (0 to 100 scale) ([14]; Postemergence, 31 g ai/ha): 30; Pigweed plant response rating (0 to 100 scale) [14, 21]: 70; Ragweed plant response rating (0 to 100 scale) ([15]; Postemergence, 31 g ai/ha): 60; Ragweed plant response rating (0 to 100 scale) [15, 21]: 80; Wheat plant response rating (0 to 100 scale) ([16]; Postemergence, 31 g ai/ha): 40; Wheat plant response rating (0 to 100 scale) [16, 21]: 80; Plant response rating, Barnyardgrass (Flood) [17]: 0; Plant response rating, Ducksalad (Flood) [18]: 0; Plant response rating, Rice (Flood) [19]: 0; Plant response rating, Sedge, Umbrella (Flood) [20]: 0
CO/N=C(\c1c(O)c(C)nn(C)c1=O)c1cc(SC)cc2ccccc12 [Compound 279]	0	0	0	0	0	0	0	0	0	0	0	0	0	0	0	0	0	0	0	0	Foxtail, Giant plant response rating (0 to 100 scale) ([11]; Postemergence, 31 g ai/ha): 0; Foxtail, Giant plant response rating (0 to 100 scale) [11, 21]: 0; Galium plant response rating (0 to 100 scale) ([12]; Postemergence, 31 g ai/ha): 0; Galium plant response rating (0 to 100 scale) [12, 21]: 0; Kochia plant response rating (0 to 100 scale) ([13]; Postemergence, 31 g ai/ha): 0; Kochia plant response rating (0 to 100 scale) [13, 21]: 30; Pigweed plant response rating (0 to 100 scale) ([14]; Postemergence, 31 g ai/ha): 0; Pigweed plant response rating (0 to 100 scale) [14, 21]: 10; Ragweed plant response rating (0 to 100 scale) ([15]; Postemergence, 31 g ai/ha): 0; Ragweed plant response rating (0 to 100 scale) [15, 21]: 10; Wheat plant response rating (0 to 100 scale) ([16]; Postemergence, 31 g ai/ha): 0; Wheat plant response rating (0 to 100 scale) [16, 21]: 0; Plant response rating, Barnyardgrass (Flood) [17]: 0; Plant response rating, Ducksalad (Flood) [18]: 0; Plant response rating, Rice (Flood) [19]: 0; Plant response rating, Sedge, Umbrella (Flood) [20]: 0
CO/N=C(/c1cccc(/C=C/Cl)c1)c1c(O)c(C)nn(C)c1=O [Compound 285]	0	10	0	0	0	0	0	0	0	0	0	10	0	0	20	30	0	10	0	0	Foxtail, Giant plant response rating (0 to 100 scale) ([11]; Postemergence, 31 g ai/ha): 10; Foxtail, Giant plant response rating (0 to 100 scale) [11, 21]: 20; Galium plant response rating (0 to 100 scale) ([12]; Postemergence, 31 g ai/ha): 50; Galium plant response rating (0 to 100 scale) [12, 21]: 60; Kochia plant response rating (0 to 100 scale) ([13]; Postemergence, 31 g ai/ha): 10; Kochia plant response rating (0 to 100 scale) [13, 21]: 20; Pigweed plant response rating (0 to 100 scale) ([14]; Postemergence, 31 g ai/ha): 0; Pigweed plant response rating (0 to 100 scale) [14, 21]: 70; Ragweed plant response rating (0 to 100 scale) ([15]; Postemergence, 31 g ai/ha): 30; Ragweed plant response rating (0 to 100 scale) [15, 21]: 60; Wheat plant response rating (0 to 100 scale) ([16]; Postemergence, 31 g ai/ha): 0; Wheat plant response rating (0 to 100 scale) [16, 21]: 0; Plant response rating, Barnyardgrass (Flood) [17]: 0; Plant response rating, Ducksalad (Flood) [18]: 0; Plant response rating, Rice (Flood) [19]: 0; Plant response rating, Sedge, Umbrella (Flood) [20]: 0
CO/N=C(\c1cccc(/C=C/Cl)c1)c1c(O)c(C)nn(C)c1=O [Compound 286]	0	10	60	90	0	50	0	0	0	10	0	20	0	0	0	30	20	0	0	0	Foxtail, Giant plant response rating (0 to 100 scale) ([11]; Postemergence, 31 g ai/ha): 0; Foxtail, Giant plant response rating (0 to 100 scale) [11, 21]: 20; Galium plant response rating (0 to 100 scale) ([12]; Postemergence, 31 g ai/ha): 50; Galium plant response rating (0 to 100 scale) [12, 21]: 60; Kochia plant response rating (0 to 100 scale) ([13]; Postemergence, 31 g ai/ha): 10; Kochia plant response rating (0 to 100 scale) [13, 21]: 30; Pigweed plant response rating (0 to 100 scale) ([14]; Postemergence, 31 g ai/ha): 20; Pigweed plant response rating (0 to 100 scale) [14, 21]: 50; Ragweed plant response rating (0 to 100 scale) ([15]; Postemergence, 31 g ai/ha): 30; Ragweed plant response rating (0 to 100 scale) [15, 21]: 50; Wheat plant response rating (0 to 100 scale) ([16]; Postemergence, 31 g ai/ha): 30; Wheat plant response rating (0 to 100 scale) [16, 21]: 30; Plant response rating, Barnyardgrass (Flood) [17]: 0; Plant response rating, Ducksalad (Flood) [18]: 0; Plant response rating, Rice (Flood) [19]: 0; Plant response rating, Sedge, Umbrella (Flood) [20]: 0
